Measurements as given in patent US7109243B2 (IRM LLC, priority 2003, dated 2006).

How the values were obtained:
Cathepsin K = target: T1, Cathepsin K (Homo sapiens, UniProt P43235); assay: Cathepsin K inhibition assay (fluorogenic peptide substrate); selectivity ratio vs cathepsin S; format: biochemical; settings: ratio of cathepsin K inhibition constant to cathepsin S inhibition constant; Table II
T1 sequence (P43235 115-329): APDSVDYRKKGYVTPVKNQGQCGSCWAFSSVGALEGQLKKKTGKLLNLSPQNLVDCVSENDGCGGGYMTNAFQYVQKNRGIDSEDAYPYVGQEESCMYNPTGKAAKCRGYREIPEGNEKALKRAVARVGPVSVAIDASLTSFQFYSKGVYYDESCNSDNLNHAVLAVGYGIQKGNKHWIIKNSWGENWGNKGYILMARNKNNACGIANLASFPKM
How it was run: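 Inhibition constants for competitive inhibitors come from apparent values fitted to enzyme progress curves. Substrate, acetyl-Lys-His-Pro-Lys-aminocarbamoylcoumarin (40 μM final), starts the reaction; fluorescence rise read at 380 nm excitation, 450 nm emission. Selectivity ratio: other cathepsin constant over cathepsin S constant.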

Cathepsin S = Cathepsin S (Homo sapiens, UniProt P25774); assay: Cathepsin S inhibition assay (fluorogenic peptide substrate); format: biochemical; settings: Table II, compounds of Formula I; read-out: Ki Cat. S
Chain of Cathepsin S (P25774 115-331, species assumed): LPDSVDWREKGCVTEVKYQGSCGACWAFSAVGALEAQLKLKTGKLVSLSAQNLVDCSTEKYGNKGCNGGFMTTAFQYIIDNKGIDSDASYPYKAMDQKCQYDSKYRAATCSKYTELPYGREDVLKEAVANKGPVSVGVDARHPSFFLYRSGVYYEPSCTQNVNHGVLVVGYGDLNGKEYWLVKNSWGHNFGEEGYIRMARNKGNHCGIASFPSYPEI
How it was run: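 Ki values come from nonlinear fitting of inhibited hydrolysis rates, taking free and total inhibitor concentrations as equal. Rates measured as rising fluorescence at 380/450 nm after reaction start with 50 μM final acetyl-HPVK-aminocarbamoylcoumarin.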

Compound	Selectivity for Cat. S over Cat. K (Cathepsin K)	Ki (Cathepsin S) [nM]
COc1ccc(NCCNC(=O)[C@H](CC2CCCCC2)NC(=O)CNc2ccccc2)cc1 [Compound 159, (S)-3-Cyclohexyl-N-[2-(4-methoxy-phenylamino)-ethyl]-2-(2-phenylamino-acetylamino)-propionamide]	+++ (+++, >1000)	< 100
COc1ccc(NCCNC(=O)[C@H](Cc2ccccc2)NC(=O)Nc2ccc3c(c2)OCO3)cc1 [Compound 94, (S)-2-(3-Benzo[1,3]dioxol-5-yl-ureido)-N-[2-(4-methoxy-phenylamino)-ethyl]-3-phenyl-propionamide]	+ (+, >10)	< 10000
COc1ccc(NCCNC(=O)C(NC(=O)c2cccc(C)c2)c2ccccc2C)cc1 (stereo not drawn) [Compound 220, N-{[2-(4-Methoxy-phenylamino)-ethylcarbamoyl]-o-tolyl-methyl}-3-methyl-benzamide]	++ (++, >100)	< 1000
O=C(N[C@@H](CC1CCCCC1)C(=O)NCCNc1ccc(OC(F)(F)F)cc1)c1ccc(-c2ccccc2C(F)(F)F)s1 [Compound 35, 5-(2-Trifluoromethyl-phenyl)-thiophene-2-carboxylic acid (S)-{2-cyclohexyl-1-[2-(4-trifluoromethoxy-phenylamino)-ethylcarbamoyl]-ethyl}-amide]	+ (+, >10)	< 100
CC(C)Oc1ccc(C(=O)N[C@@H](CC2CCCCC2)C(=O)NCCNc2ccc(OC(F)(F)F)cc2)cc1 [Compound 61, N-(S)-{2-cyclohexyl-1-[2-(4-trifluoromethoxy-phenylamino)-ethylcarbamoyl]-ethyl}-4-isopropoxy-benzamide]	+ (+, >10)	< 1000
COc1ccc(NCCNC(=O)[C@H](CC2CCCCC2)NC(=O)c2cnn(-c3ccc(Cl)cc3)c2C)cc1 [Compound 163, (S)-1-(4-Chloro-phenyl)-5-methyl-1H-pyrazole-4-carboxylic acid {2-cyclohexyl-1-[2-(4-methoxy-phenylamino)-ethylcarbamoyl]-ethyl}-amide]	+ (+, >10)	< 100
O=C(N[C@@H](CC1CCCCC1)C(=O)NCCNc1ccc(OC(F)(F)F)cc1)c1cccc(CN2CCOCC2)c1 [Compound 200, (S)-N-{2-Cyclohexyl-1-[2-(4-trifluoromethoxy-phenylamino)-ethylcarbamoyl]-ethyl}-3-morpholin-4-ylmethyl-benzamide]	+ (+, >10)	< 100
COc1ccc(NCCNC(=O)[C@H](CCC2CCCCC2)NC(=O)c2ccc(OCc3ccccc3)cc2)cc1 [Compound 129, (S)-4-Benzyloxy-N-{3-cyclohexyl-1-[2-(4-methoxy-phenylamino)-ethylcarbamoyl]-propyl}-benzamide]	+ (+, >10)	< 10000
COc1ccc(NCCNC(=O)[C@H](Cc2ccccc2)NC(=O)c2cccc3c2OCC3)cc1 [Compound 52, (S)-2,3-Dihydro-benzofuran-7-carboxylic acid {1-[2-(4-methoxy-phenylamino)-ethylcarbamoyl]-2-phenyl-ethyl}-amide]	+ (+, >10)	< 10000
COc1ccc(NCCNC(=O)[C@H](CC2CCCCC2)NC(=O)c2cccc(-c3csc(C)n3)c2)cc1 [Compound 123, (S)-N-{2-Cyclohexyl-1-[2-(4-methoxy-phenylamino)-ethylcarbamoyl]-ethyl}-3-(2-methyl-thiazol-4-yl)-benzamide]	++ (++, >100)	< 100
Cc1ccc(-c2ccc(C(=O)N[C@@H](CC3CCCCC3)C(=O)NCCNc3ccc(OC(F)(F)F)cc3)o2)cc1 [Compound 70, 5-p-Tolyl-furan-2-carboxylic acid (S)-{2-cyclohexyl-1-[2-(4-trifluoromethoxy-phenylamino)-ethylcarbamoyl]-ethyl}-amide]	+++ (+++, >1000)	< 100
COc1ccc(NCCNC(=O)[C@H](CC2CCCCC2)NC(=O)c2c[nH]c3ccccc23)cc1 [Compound 185, (S)-1H-Indole-3-carboxylic acid {2-cyclohexyl-1-[2-(4-methoxy-phenylamino)-ethylcarbamoyl]-ethyl}-amide]	++ (++, >100)	< 100
COc1ccc(NCCNC(=O)[C@H](Cc2ccccc2)NC(=O)Nc2ccc(Cl)cc2)cc1 [Compound 88, (S)-2-[3-(4-Chloro-phenyl)-ureido]-N-[2-(4-methoxy-phenylamino)-ethyl]-3-phenyl-propionamide]	+ (+, >10)	< 1000

The remaining lines, values ahead:

Selectivity for Cat. S over Cat. K (Cathepsin K)	Ki (Cathepsin S) [nM]	Compound
++ (++, >100)	< 1000	N#Cc1cccc(C(=O)N[C@@H](CC2CCCCC2)C(=O)NCCNc2ccc(F)cc2)c1 [Compound 321, 3-Cyano-N-(S)-{2-cyclohexyl-1-[2-(4-fluoro-phenylamino)-ethylcarbamoyl]-ethyl}-benzamide]
++ (++, >100)	< 1000	COc1ccc(NCCNC(=O)C(NC(=O)c2cccc(C)c2)c2ccc(F)cc2)cc1 (stereo not drawn) [Compound 227, N-{(4-Fluoro-phenyl)-[2-(4-methoxy-phenylamino)-ethylcarbamoyl]-methyl}-3-methyl-benzamide]
+++ (+++, >1000)	< 100	COc1ccc(NCCNC(=O)C(NC(=O)c2cccc(C)c2)c2ccc(Cl)cc2Cl)cc1 (stereo not drawn) [Compound 222, N-{(2,4-Dichloro-phenyl)-[2-(4-methoxy-phenylamino)-ethylcarbamoyl]-methyl}-3-methyl-benzamide]
+ (+, >10)	< 10000	COc1ccc(NCCNC(=O)C(NC(=O)c2cccc(C)c2)c2ccc(OC)cc2OC)cc1 (stereo not drawn) [Compound 225, N-{(2,4-Dimethoxy-phenyl)-[2-(4-methoxy-phenylamino)-ethylcarbamoyl]-methyl}-3-methyl-benzamide]
+ (+, >10)	< 100	O=C(N[C@@H](CC1CCCCC1)C(=O)NCCNc1ccc(OC(F)(F)F)cc1)c1ccc(OCc2ccccc2)cc1 [Compound 232, (S)-4-Benzyloxy-N-{2-cyclohexyl-1-[2-(4-trifluoromethoxy-phenylamino)-ethylcarbamoyl]-ethyl}-benzamide]
+ (+, >10)	< 10000	COc1ccc(NCCNC(=O)C(NC(=O)c2cccc(C)c2)C(C)c2ccccc2)cc1 (stereo not drawn) [Compound 269, erythro-N-{1-[2-(4-Methoxy-phenylamino)-ethylcarbamoyl]-2-phenyl-propyl}-3-methyl-benzamide]
++ (++, >100)	< 1000	COc1ccc(NCCNC(=O)C(NC(=O)c2cccc(C)c2)C(C)c2ccccc2)cc1 (stereo not drawn) [Compound 268, threo-N-{1-[2-(4-Methoxy-phenylamino)-ethylcarbamoyl]-2-phenyl-propyl}-3-methyl-benzamide]
++ (++, >100)	< 100	O=C(Cc1cccc(C(F)(F)F)c1)N[C@@H](CC1CCCCC1)C(=O)NCCNc1ccc(F)cc1 [Compound 323, 3-Cyclohexyl-N-[2-(4-fluoro-phenylamino)-ethyl]-2-(S)-[2-(3-trifluoromethyl-phenyl)-acetylamino]-propionamide]
